Assay results published in patent US7005513B1, “Functionalized glycosaminoglycan polymer and medical instruments and drugs by using the same” (Netech, Inc., priority 1999, dated 2006).

Test system: human coronary artery endothelial cells (CEC)
Assay: CEC proliferation on coated multiplate (WST-1)
Assay type: cell-based
Design: reference not given here
Conditions: substance as plate coating, 3 days
Description: A polystyrene 96-well multiplate was coated with aqueous P-I-20 or P-N-12 solutions (0.5 mg/ml) of the present invention, and also 2% gelatin and 10 μg/ml of human fibronectin solution, these were inoculated with 6,000 human coronary artery endothelial cells (CEC) suspended in a Dulbecco modified Eagle medium (10% fetal bovine serum added), after which FGF2 or VEGF165 were added as cell growth factors, and this was cultured from 3 days. After culturing, a WST-1 reagent (cell counting kit, Dojindo) was used to count the number of increased cells, and the results of an evaluation of the proliferation rate are shown in Table 1.

Substance	CEC Proliferation Rate (FGF2 4 μg/l)	CEC Proliferation Rate (FGF2 8 μg/l)	CEC Proliferation Rate (VEGF165 4 μg/l)	CEC Proliferation Rate (VEGF165 8 μg/l)
Gelatin	356	389	335	385
Fibronectin	273	327	371	436
